# Legend:
# beagle dogs = conditions: Ca-EDTA compared with Ca-DTPA; cited from earlier work
# [1] = tested on: large intestine tissue pieces (crypts); experiment: Evaluation 1 of in vitro crypt isolation effect; format: cell-based, mice (C57B6/j); conditions: 37° C. 30 minutes
# Procedure: Eight-week-old male mice (C57B6/j, CLEA Japan, Inc.) were sacrificed by cervical dislocation and the whole large intestine was removed. […] The intestinal tract was longitudinally opened and 5-mm-long tissue pieces were obtained. The tissue pieces were placed in 1.5-mL microtubes each containing 1 mL of Hank's balanced salt solution. The tissue pieces were washed by stirring for 10 minutes with a microtube mixer (MT-400 available from TOMY SEIKO CO., LTD.). After washing, the tissue pieces were transferred to other 1.5-mL microtubes each containing 1 mL of Hank's balanced salt solution, and washed in the same manner.
# The tissue pieces were transferred to 1.5-mL microtubes containing the compositions (C-1) to (C-6) and the comparative compositions (C′-1) to (C′-7) each in an amount of 1 mL and were allowed to stand at 37° C. for 30 minutes.
# After 30 minutes, the tissue pieces were transferred to other 1.5-mL microtubes each containing 1 mL of Hank's balanced salt solution and stirred for five minutes with a microtube mixer. Thereby, the crypts were isolated. […] Thereby, the tissue was fixed. A 50-μL portion was sampled therefrom and dropped onto dishes, and the number of crypts contained was counted using an optical microscope. The number of crypts was counted three times for each concentration, and the average was calculated therefrom.
# The presence of one or more crypts was considered that a sufficient embrittlement effect was obtained.
# proximal large intestine = experiment: Evaluation 1 of in vivo epithelial detachment effect; parameters: species or system mice (C57B6/j); conditions: 8 mL at 50° C. over two minutes, once
# From the text: A longitudinal 1-cm abdominal midline incision was made, and the proximal large intestine was exposed to the outside of the abdominal cavity. A small incision was made in the proximal large intestine 1 cm anal side from the cecum, and a catheter was inserted toward the anal. […] A small incision was made 1 cm anal side from the catheter insertion site, and another catheter was inserted toward the oral side. These two catheters allowed perfusion of the 1-cm-long intestinal tract. The catheters were each fixed with a thread from the outside of the intestinal tract, together with the vasculature, to cut off the blood flow in the 1-cm-long intestinal tract sandwiched between the two catheters.
# Immediately after the injection of the biological tissue embrittling agents, 25 mL of Dulbecco's phosphate-buffered saline (without Ca and Mg) was continuously injected three times each over 45 seconds, whereby the crypts were detached. Then, 20 mL of Dulbecco's Modified Eagle's Medium, high glucose, (Sigma-Aldrich Cat #D5796) was injected to antagonize the biological tissue embrittling agents. […] The large intestine was longitudinally cut and flat opened, and was imaged with a fluorescent stereo microscope (Leica M165 FC) and an all-in-one fluorescence microscope (KEYENCE BZ-X800). The images were analyzed with ImageJ and the detached area was measured. […]
# [2] = tested on: minced distal large intestine tissue (crypts); experiment: Evaluation 2 of in vitro crypt isolation effect; format: cell-based, mice (C57B6/j); conditions: 37° C. 30 minutes
# Procedure: Thereby, the crypts were isolated. […] Thereby, the tissue was fixed. A 50-μL portion was sampled therefrom and dropped onto dishes, and the number of crypts contained was counted using an optical microscope. The number of crypts was counted three times for each concentration, and the average was calculated therefrom.
SMILES,safety of intravenous administration for one month (beagle dogs),"Number of crypts ([1]; 2 mM, compositions (C-1), (C′-2))","Number of crypts ([1]; 8 mM, compositions (C-2), (C′-3))","Number of crypts ([1]; 16 mM, compositions (C-3), (C′-4))","Number of crypts ([1]; 32 mM, compositions (C-4), (C′-5))","Number of crypts ([1]; 64 mM, compositions (C-5), (C′-6))","Number of crypts ([1]; 128 mM, compositions (C-6), (C′-7))","Evaluation 1 of epithelial detachment effect Detached area (proximal large intestine; 230 mM, agents (M-1), (M′-2))","Evaluation 1 of epithelial detachment effect Detached area (proximal large intestine; 500 mM, agent (M′-3))","Number of crypts ([2]; 3 mM, compositions (C-7) to (C-10), (C′-8))","Number of crypts ([2]; 10 mM, compositions (C-11) to (C-14), (C′-9))"
O=C(O)CN(CCN(CC(=O)O)CC(=O)O)CC(=O)O.[Ca] [Ca-EDTA],no significant difference in safety,,,,,,,,,,
"O=C([O-])CN(CCN(CC(=O)O)CC(=O)O)CC(=O)[O-].[Na+].[Na+] [(Z′-1), disodium ethylenediaminetetraacetate]",,48.67,156.33,140,129.33,115.33,95.67,30.2 mm^2,66.0 mm^2,108.89,169.56
O=C([O-])CN(CCN(CC(=O)[O-])CC(=O)[O-])CCN(CC(=O)[O-])CC(=O)[O-].[Ca+2].[Na+].[Na+].[Na+] [Ca-DTPA],no significant difference in safety,,,,,,,,,,

# Source: patent publication US20240059644A1, “COMPOUND, COMPOSITION, BIOTISSUE EMBRITTLEMENT AGENT, BIOTISSUE SURFACE DETACHMENT METHOD, AND BIOTISSUE DETACHMENT KIT” (SANYO CHEMICAL INDUSTRIES, LTD., priority 2020, published 2024)
